# Source: patent publication US20070218460A1, “Method of Estimating Toxicity of Drug” (TAKEDA PHARMACEUTICAL COMPANY LIMITED, priority 2003, published 2007)
# Legend:
# HepG2 cells [1] = assay: Electron-microscopic examination of PLsis induction potential (myelin-like structure)
# Text: Using 30 kinds of the following commercially available drugs as test compounds, the level of PLsis induction potential was examined with the emergence of an intracellular myelin-like structure or a structure having a high electron density, which is an early image thereof, as an index by electronmicroscopic observation.
# HepG2 cells (purchased from ATCC) were exposed to the test compound by a conventional method. HepG2 cells used were of the cell growth phase. The attached HepG2 cells were washed twice with. Dulbecco's phosphate buffered saline (calcium and magnesium salt free; PBS(−))(Dainippon Pharmaceutical Co., Ltd.) containing 0.05 w/v % EDTA, detached with a cell dissociation solution of 0.25 vol % trypsin-1 mmol/L EDTA (Gibco BRL) diluted 2-fold with PBS(−), centrifuged to remove the supernatant, and adjusted to a concentration of 2×10^5 cells/250 μL with a culture medium [Dulbecco's modified Eagle medium (DMEM)(Gibco BRL) supplemented with 50 U/mL penicillin (Gibco BRL)-[…] streptomycin (Gibco BRL) and 5 vol % FBS (Bio whittaker)]. DMSO alone or a culture medium containing the above-mentioned test compound in DMSO solution was dispensed to a well by 250 μL, the above-mentioned cell suspension (250 μL) was added, and cultured in a CO2 incubator (7100; Napco) under an atmosphere of 5% CO2—95% air at 37° C.
# After culture for 72 hr, the culture medium was removed, and the cells were fixed with 1 w/v % glutaraldehyde solution. After fixing with 2 w/v % osmic acid for 2 hr by a conventional method and dehydrating with an alcohol series, the cells were embedded in a resin (Quetol 812). Ultrathin slices were prepared and, after electron staining, observed with an electron microscope (H-300; Hitachi) and photographed in 3 or more pictures per each sample (magnification ×5000). The processing after post-fixation was performed by Applied Medical Research.
# tagln = assay: Real-time quantitative PCR of PLsis marker gene expression; assay type: cell-based, human; conditions: HepG2 cells, 24 hr exposure, relative value, control group = 1.0, GAPDH internal standard, n=3
# Experimental: (§1) Using RNeasy Mini Kit (QIAGEN), total RNA was purified from the cells, and cDNA was synthesized in a 100 μL system using TaqMan Reverse Transcription Reagents (PE Applied Biosystems).
# (§2) As the primer for glyceraldehyde-3-phosphoric acid dehydrogenase (GAPDH) and VIC labeled probe, those attached to TaqMan GAPDH Control Reagents (PE Applied Biosystems) were used.
# (§3) Using 100 μL of the reaction mixture containing 5 μL of cDNA (1×TaqMan Universal PCR Master Mix (PE Applied Biosystems), 200 nM forward primer, 200 nM reverse primer and 200 nM TaqMan probe), 40 cycles of (1 cycle=95° C., 15 sec; 60° C., 1 min) PCR were performed. PCR and fluorescence detection were performed using ABI PRISM Sequence Detector 7000 (PE Applied Biosystems). As the internal standard, GAPDH was used to amend the measurement values. For the determination of significant difference, t-test was used (n=3).
# (§4) For each test compound, the expression variation rate of 12 genes each relative to the control group was determined.
# lss = assay: as above; assay type: cell-based, human; conditions: HepG2 cells, 24 hr exposure, relative value, control group = 1.0, GAPDH internal standard, n=3
# Experimental: as §1, §2, §3, §4
# mgc4171 = assay: as above; assay type: cell-based, human; conditions: HepG2 cells, 24 hr exposure, relative value, control group = 1.0, GAPDH internal standard, n=3
# Experimental: as §1, §2, §3, §4
# depp = assay: as above; assay type: cell-based, human; conditions: HepG2 cells, 24 hr exposure, relative value, control group = 1.0, GAPDH internal standard, n=3
# Experimental: as §1, §2, §3, §4
# flj22362 = assay: as above; assay type: cell-based, human; conditions: HepG2 cells, 24 hr exposure, relative value, control group = 1.0, GAPDH internal standard, n=3
# Experimental: as §1, §2, §3, §4
# nr0b2 = assay: as above; assay type: cell-based, human; conditions: HepG2 cells, 24 hr exposure, relative value, control group = 1.0, GAPDH internal standard, n=3
# Experimental: as §1, §2, §3, §4
# hpn = assay: as above; assay type: cell-based, human; conditions: HepG2 cells, 24 hr exposure, relative value, control group = 1.0, GAPDH internal standard, n=3
# Experimental: as §1, §2, §3, §4
# kiaa1001 = assay: as above; assay type: cell-based, human; conditions: HepG2 cells, 24 hr exposure, relative value, control group = 1.0, GAPDH internal standard, n=3
# Experimental: as §1, §2, §3, §4
# slc2a3 = assay: as above; assay type: cell-based, human; conditions: HepG2 cells, 24 hr exposure, relative value, control group = 1.0, GAPDH internal standard, n=3
# Experimental: as §1, §2, §3, §4
# asah1 = assay: as above; assay type: cell-based, human; conditions: HepG2 cells, 24 hr exposure, relative value, control group = 1.0, GAPDH internal standard, n=3
# Experimental: as §1, §2, §3, §4
# fabp1 = assay: as above; assay type: cell-based, human; conditions: HepG2 cells, 24 hr exposure, relative value, control group = 1.0, GAPDH internal standard, n=3
# Experimental: as §1, §2, §3, §4
# serpina3 = assay: as above; assay type: cell-based, human; conditions: HepG2 cells, 24 hr exposure, relative value, control group = 1.0, GAPDH internal standard, n=3
# Experimental: as §1, §2, §3, §4
# HepG2 cells [2] = assay: Highest concentration at which cells were viable after 72 hr exposure; assay type: cell-based, human
SMILES,frequency of appearance of myelin-like structure (HepG2 cells [1]),expression variation rate tagln (tagln),expression variation rate lss (lss),expression variation rate mgc4171 (mgc4171),expression variation rate depp (depp),expression variation rate flj22362 (flj22362),expression variation rate nr0b2 (nr0b2),expression variation rate hpn (hpn),expression variation rate kiaa1001 (kiaa1001),expression variation rate slc2a3 (slc2a3),expression variation rate asah1 (asah1),expression variation rate fabp1 (fabp1),expression variation rate serpina3 (serpina3),addition concentration (highest concentration at which cells survived after 72 hr of culture) (HepG2 cells [2])
CCCCc1oc2ccccc2c1C(=O)c1cc(I)c(OCCN(CC)CC)c(I)c1 [amiodarone],++,0.56,1.82,1.32,1.12,1.07,1.35,2.15,1.56,0.35,1.69,2.01,1.17,8.3 µmol/L
Cc1cc(NS(=O)(=O)c2ccc(N)cc2)no1 [sulfamethoxazole],−,0.99,0.82,0.78,0.70,0.87,0.82,0.89,0.84,1.11,1.26,0.85,0.98,25 µmol/L
CN(C)CCC=C1c2ccccc2CCc2ccccc21 [amitriptyline],+++,0.23,1.79,2.22,5.08,1.80,1.64,2.20,2.11,0.22,3.10,2.39,3.01,25 µmol/L
CN[C@H]1CC[C@@H](c2ccc(Cl)c(Cl)c2)c2ccccc21 [sertraline],++,0.37,3.91,1.94,4.44,3.49,1.79,3.07,2.38,0.14,3.08,4.14,2.69,8.3 µmol/L
O=C(NCC1CCCCN1)c1cc(OCC(F)(F)F)ccc1OCC(F)(F)F (centres unmarked) [flecainide],−,0.86,1.22,1.57,1.73,1.65,1.02,1.26,2.10,0.46,2.42,1.50,1.60,25 µmol/L
CC[C@H]1OC(=O)[C@H](C)[C@@H](O[C@H]2C[C@@](C)(OC)[C@@H](O)[C@H](C)O2)[C@H](C)[C@@H](O[C@@H]2O[C@H](C)C[C@H](N(C)C)[C@H]2O)[C@](C)(O)C[C@@H](C)C(=O)[C@H](C)[C@@H](O)[C@]1(C)O [erythromycin],−,0.85,0.87,0.86,0.71,0.92,0.90,0.87,0.78,0.73,0.90,0.73,0.85,25 µmol/L

# The next lines start with results.
frequency of appearance of myelin-like structure (HepG2 cells [1]),expression variation rate tagln (tagln),expression variation rate lss (lss),expression variation rate mgc4171 (mgc4171),expression variation rate depp (depp),expression variation rate flj22362 (flj22362),expression variation rate nr0b2 (nr0b2),expression variation rate hpn (hpn),expression variation rate kiaa1001 (kiaa1001),expression variation rate slc2a3 (slc2a3),expression variation rate asah1 (asah1),expression variation rate fabp1 (fabp1),expression variation rate serpina3 (serpina3),SMILES,addition concentration (highest concentration at which cells survived after 72 hr of culture) (HepG2 cells [2])
+,0.71,4.33,1.53,2.29,1.95,2.36,2.71,2.24,0.48,1.47,5.30,2.37,CC(=O)N1CCN(c2ccc(OCC3COC(Cn4ccnc4)(c4ccc(Cl)cc4Cl)O3)cc2)CC1 (centres unmarked) [ketoconazole],8.3 µmol/L
+,0.59,1.05,1.12,2.67,1.71,1.33,1.74,2.24,0.70,2.91,1.42,1.95,CN(C)C/C=C(/c1ccc(Br)cc1)c1cccnc1 [zimelidine],25 µmol/L
+,0.78,1.52,1.41,2.08,1.46,0.98,2.39,3.83,0.63,0.82,2.36,2.03,CN(C)CCCN1c2ccccc2CCc2ccc(Cl)cc21 [clomipramine],8.3 µmol/L
−,0.52,1.52,1.24,1.38,0.93,1.49,1.43,1.32,0.44,0.77,1.50,1.31,O=C(CCCN1CCC(O)(c2ccc(Cl)cc2)CC1)c1ccc(F)cc1 [haloperidol],8.3 µmol/L
